These results are taken from US20120277209A1, “PYRAZINE COMPOUNDS AS PHOSPHODIESTERASE 10 INHIBITORS” (Amgen Inc., priority 2009, published 2012).

The IC50 is the concentration needed to halve the response being measured.

The target in the first assay is PDE10 (UniProt Q9Y233). Put plainly: PDE10 enzyme inhibition, IMAP TR-FRET assay (MPDE10A7 Enzyme Activity and Inhibition). The conditions noted are these: IC50 class against PDE10; read-out: IC50. The class given is biochemical. How it is done:
All compounds were divided in five classes based on their IC50 values against PDE10. The range of the IC50 in each class is as follows:
An IMAP TR-FRET assay was used to analyze the enzyme activity (Molecular Devices Corp., Sunnyvale Calif.). 5 μL of serial diluted PDE10A (BPS Bioscience, San Diego, Calif.) or tissue homogenate was incubated with equal volumes of diluted fluorescein labeled cAMP or cGMP for 60 min in 384-well polystyrene assay plates (Corning, Corning, N.Y.) at room temperature. After incubation, the reaction was stopped by adding 60 μL of diluted binding reagents and was incubated for 3 hours to overnight at room temperature. The plates were read on an Envision (Perkin Elmer, Waltham, Mass.) for time resolved fluorescence resonance energy transfer. The data were analyzed with GraphPad Prism (La Jolla, Calif.).
Enzyme Inhibition. To check the inhibition profile, 5 μL of serial diluted compounds were incubated with 5 μL of diluted PDE10 enzyme (BPS Bioscience, San Diego, Calif.) or tissue homogenate in a 384-well polystyrene assay plate (Corning, Corning, N.Y.) for 30 min at room temperature. After incubation, 10 μL of diluted fluorescein labeled cAMP or cGMP substrate were added and incubated for 60 min at room temperature. The reaction was stopped by adding 60 μL of diluted binding reagents and plates were read on an Envision (Perkin Elmer, Waltham, Mass.) for time resolved fluorescence resonance energy transfer. The data were analyzed with GraphPad Prism (La Jolla, Calif.).
The tabulated IC50 data represent an average IC50 data for each compound.
On the technique in general: In TR-FRET formats the signal depends on donor and acceptor labels being close together.
Turning to `O=C(c1ccc(Oc2nccnc2-c2cccnc2)cc1)c1nc2ccccc2[nH]1` [Example 123, (1H-benzo[d]imidazol-2-yl)(4-(3-(pyridin-3-yl)pyrazin-2-yloxy)phenyl)methanone], the 50% inhibitory concentration (IC50) was under 25 nM.

As to `OCCN1CCN(c2nccnc2Oc2ccc(Nc3nc4ccccc4s3)cc2)CC1` [Example 79, 2-(4-(3-(4-(benzo[d]thiazol-2-ylamino)phenoxy)pyrazin-2-yl)piperazin-1-yl)ethanol], the IC50 is under 25 nM.

For `O=C(c1ccc(Oc2nccnc2C2CCCOC2)cc1)c1nc2ccccc2[nH]1` (stereo not drawn) [Example 186, 1H-benzimidazol-2-yl(4-((3-(tetrahydro-2H-pyran-3-yl)-2-pyrazinyl)oxy)phenyl)methanone], the IC50 is under 25 nM.

With `COc1ncc(-c2nccnc2Oc2ccc(Nc3nc4ccccc4s3)cc2)cn1` [Example 144, N-(4-(3-(2-methoxypyrimidin-5-yl)pyrazin-2-yloxy)phenyl)benzo[d]thiazol-2-amine], the IC50 is under 25 nM.

As for `Cc1cc(-c2nccnc2Oc2ccc(C(=O)c3nc4ccccc4[nH]3)cc2)ccn1` [Example 107, (1H-benzo[d]imidazol-2-yl)(4-(3-(2-methylpyridin-4-yl)pyrazin-2-yloxy)phenyl)methanone], the concentration for half-maximal inhibition (IC50) is under 25 nM.

As for `N#CC1(c2nccnc2Oc2ccc(C(=O)c3nc4ccccc4[nH]3)cc2)CCOCC1` [Example 211, 4-(3-(4-(1H-benzo[d]imidazole-2-carbonyl)phenoxy)pyrazin-2-yl)tetrahydro-2H-pyran-4-carbonitrile], the half-maximal inhibitory concentration (IC50) is under 25 nM.

As for `c1ccc2sc(Nc3ccc(Oc4nccnc4C4CCOCC4)cc3)nc2c1` [Example 208, N-(4-(3-(tetrahydro-2H-pyran-4-yl)pyrazin-2-yloxy)phenyl)benzo[d]thiazol-2-amine], the half-maximal inhibitory concentration (IC50) is under 25 nM.

On to `O=C(c1ccc(Oc2nccnc2OCC2CCOC2)cc1)c1nc2ccccc2[nH]1` (stereo not drawn) [Example 171, (1H-benzo[d]imidazol-2-yl)(4-(3-((tetrahydrofuran-3-yl)methoxy)pyrazin-2-yloxy)phenyl)methanone], for which the concentration for half-maximal inhibition (IC50) was in the range of 100 to 250 nM.

Regarding `N#CC1CCN(c2nccnc2Oc2ccc(Nc3nc4ccccc4s3)cc2)C1` (stereo not drawn) [Example 84, 1-(3-(4-(benzo[d]thiazol-2-ylamino)phenoxy)pyrazin-2-yl)pyrrolidine-3-carbonitrile], the half-maximal inhibitory concentration (IC50) was under 25 nM.

On to `COC(=O)C1CN(c2nccnc2Oc2ccc(Nc3nc4ccccc4s3)cc2)C1` [Example 83, methyl 1-(3-(4-(benzo[d]thiazol-2-ylamino)phenoxy)pyrazin-2-yl)azetidine-3-carboxylate], for which the half-maximal inhibitory concentration (IC50) is under 25 nM.

For the compound `C[C@]1(O)CC[C@H](c2nccnc2Oc2ccc(C(=O)c3nc4ccccc4[nH]3)cc2)CC1` [Example 197, (1H-benzo[d]imidazol-2-yl)(4-(3-((1R,4R)-4-hydroxy-4-methylcyclohexyl)pyrazin-2-yloxy)phenyl)methanone], the concentration for half-maximal inhibition (IC50) was under 25 nM.

The assay is the same for the next values; noted with them: PDE10 enzyme inhibition; average IC50 data for each compound; read-out: Average IC50.
Consider `Fc1ccc2sc(Nc3ccc(Oc4nccnc4Cl)cc3)nc2c1` [drawing 832], for which the IC50 is over 30000 nM.

Turning to `O=C(c1ccc(Oc2nccnc2OCCN2CCCC2)cc1)c1nc2ccccc2[nH]1` [drawing 856], the half-inhibitory concentration (IC50) is 541 nM.

Consider `COc1cncc(-c2nccnc2Oc2ccc(C(=O)c3nc4ccccc4[nH]3)cc2)c1` [drawing 917], for which the IC50 is 5.42 nM.

In the case of `O=C(c1ccc(Oc2nccnc2C2=CCOCC2)cc1)c1nc2ncccc2[nH]1` [drawing 879], the 50% inhibitory concentration (IC50) is 31.7 nM.

Consider `O=C(c1ccc(Oc2nccnc2OCc2cccnc2)cc1)c1nc2ccccc2[nH]1` [drawing 904], for which the half-maximal inhibitory concentration (IC50) was 38.8 nM.

Consider `O=C(c1ccc(Oc2nccnc2C(=O)NCCc2ccccc2)cc1)c1nc2ccccc2[nH]1` [drawing 827], for which the IC50 amounted to 4.47 nM.

With `c1ccc2[nH]c(Nc3ccc(Oc4nccnc4C4CCOCC4)cc3)nc2c1` [drawing 863], the IC50 was 0.101 nM.
